# Literature values as cited in patent publication US8124639B2, “Bicyclic [3.1.0] heteroaryl amides as type 1 glycine transport inhibitors” (Pfizer Inc., priority 2005, dated 2012).
# Tested on: NMDA receptor
# Settings: effect blocked by a specific NMDA-site antagonist and a glycine-site antagonist
compound,measurement,value
CN(CCC(Oc1ccc(-c2ccccc2)cc1)c1ccc(F)cc1)CC(=O)O (stereo not shown) [NFPS],effect on postsynaptic current driven by the NMDA receptor,increased the postsynaptic current driven by the NMDA receptor
